The target of one assay is T1, KAT6A (Homo sapiens, UniProt Q92794).
T1 construct: His-TEV tag (N, cleaved yes); made in house
Briefly: KAT6A enzyme inhibition assay (SAMDI mass spectrometry). The conditions noted are these: His-TEV-KAT6A 501-784 enzyme construct. The assay is classed as biochemical.

Another assay deals with T2, KAT5 (Homo sapiens, UniProt Q92993).
T2 construct: His-TEV tag (N, cleaved yes); made in house
Briefly: KAT5 enzyme inhibition assay (SAMDI mass spectrometry). The conditions noted are these: His-TEV-FL KAT5-Flag enzyme construct. It counts as biochemical.

Bounds are passed on as bounds.

T2 sequence (Q92993 with tags, fused parts or gaps): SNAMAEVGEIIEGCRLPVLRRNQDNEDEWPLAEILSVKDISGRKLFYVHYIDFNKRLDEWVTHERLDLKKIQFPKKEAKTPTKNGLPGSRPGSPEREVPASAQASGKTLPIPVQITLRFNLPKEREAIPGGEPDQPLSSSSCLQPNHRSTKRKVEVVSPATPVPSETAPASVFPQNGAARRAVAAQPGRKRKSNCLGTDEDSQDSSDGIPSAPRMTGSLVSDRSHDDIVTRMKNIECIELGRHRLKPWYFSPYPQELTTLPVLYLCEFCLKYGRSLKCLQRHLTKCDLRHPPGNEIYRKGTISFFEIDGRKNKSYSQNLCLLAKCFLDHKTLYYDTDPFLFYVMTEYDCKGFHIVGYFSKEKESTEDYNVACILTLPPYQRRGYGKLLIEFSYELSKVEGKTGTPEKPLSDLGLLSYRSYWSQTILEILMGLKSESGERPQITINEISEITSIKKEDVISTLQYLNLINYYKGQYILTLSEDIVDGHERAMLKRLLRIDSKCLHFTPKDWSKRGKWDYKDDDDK
T1 sequence (Q92794 with tags, fused parts or gaps): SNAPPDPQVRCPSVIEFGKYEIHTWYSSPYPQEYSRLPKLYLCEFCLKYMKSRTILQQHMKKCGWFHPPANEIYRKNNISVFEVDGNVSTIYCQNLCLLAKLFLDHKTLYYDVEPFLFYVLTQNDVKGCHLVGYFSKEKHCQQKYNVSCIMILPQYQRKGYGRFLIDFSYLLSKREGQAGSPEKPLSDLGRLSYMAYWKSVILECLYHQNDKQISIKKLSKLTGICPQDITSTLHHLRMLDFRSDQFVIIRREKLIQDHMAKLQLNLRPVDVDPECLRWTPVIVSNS

On to `Cn1ccc2c(C(=O)NNS(=O)(=O)c3ccccc3)cc(-c3ccccc3)cc21` [Compound I-17], for which the IC50 against KAT6A was > 100 µM; against KAT5, 50 to 100 µM.
Turning to `Cc1cc(-c2ccccc2)cc(C(=O)NNS(=O)(=O)C2CCCCC2)c1F` [Compound I-18], the IC50 at KAT6A and on KAT5 was ≤ 10 µM in each case.
With `Cc1cc(-c2ccccc2)cc(C(=O)NNS(=O)(=O)C2CCCC2)c1F` [Compound I-19], the IC50 on KAT6A is 10 to 50 µM; at KAT5 it was ≤ 10 µM.
In the case of `Cn1ncc2c(C(=O)NNS(=O)(=O)c3ccccc3)cc(-c3ccccc3)cc21` [Compound I-20], the IC50 on KAT6A and at KAT5 was > 100 µM each time.
Consider `Cc1cc(-c2ccccc2)cc(C(=O)NNS(=O)(=O)C(C)(C)C)c1F` [Compound I-21], for which the half-maximal inhibitory concentration (IC50) on KAT6A and against KAT5 was > 100 µM each time.
For `COc1ccccc1CN1CC(S(=O)(=O)NNC(=O)c2cc(-c3ccccc3)cc(C)c2F)C1` [Compound I-22, N′-(4-fluoro-5-methyl-[1,1′-biphenyl]-3-carbonyl)-1-(2-methoxybenzyl)azetidine-3-sulfonohydrazide], the IC50 against KAT6A and against KAT5 was 10 to 50 µM in each case.
As to `Cc1cc(-c2ccccc2)cc(C(=O)NNS(=O)(=O)C2CCNC2)c1F` (stereo not shown) [Compound I-23], the IC50 at KAT6A and at KAT5 was 10 to 50 µM throughout.
As to `Cc1cc(-c2ccccc2)cc(C(=O)NNS(=O)(=O)C2CCN(Cc3ccc(Cl)cc3)C2)c1F` (stereo not shown) [Compound I-24], the half-maximal inhibitory concentration (IC50) on KAT6A and against KAT5 was 10 to 50 µM in each case.
For the compound `COc1ccccc1CN1CCC(S(=O)(=O)NNC(=O)c2cc(-c3ccccc3)cc(C)c2F)C1` (stereo not shown) [Compound I-25], the concentration for half-maximal inhibition (IC50) against KAT6A and on KAT5 was 10 to 50 µM each time.
For the compound `COc1cccc(CN2CCC(S(=O)(=O)NNC(=O)c3cc(-c4ccccc4)cc(C)c3F)C2)c1` (stereo not shown) [Compound I-26], the 50% inhibitory concentration (IC50) against KAT6A and at KAT5 was ≤ 10 µM in each case.
With `COc1ccc(CN2CCC(S(=O)(=O)NNC(=O)c3cc(-c4ccccc4)cc(C)c3F)C2)cc1` (stereo not shown) [Compound I-27], the half-maximal inhibitory concentration (IC50) against KAT6A and on KAT5 was 10 to 50 µM in each case.
On to `Cc1cc(-c2ccccc2)cc(C(=O)NNS(=O)(=O)C2CN(Cc3cccc(Cl)c3)C2)c1F` [Compound I-28], for which the IC50 against KAT6A and at KAT5 was > 100 µM throughout.
As for `Cc1cc(-c2ccccc2)cc(C(=O)NNS(=O)(=O)C2CCN(Cc3ccccc3Cl)C2)c1F` (stereo not shown) [Compound I-29], the IC50 against KAT6A and at KAT5 was ≤ 10 µM throughout.
As for `Cc1cc(-c2ccccc2)cc(C(=O)NNS(=O)(=O)C2CCN(Cc3cccc(Cl)c3)C2)c1F` (stereo not shown) [Compound I-30], the IC50 at KAT6A and against KAT5 was 10 to 50 µM in each case.
With `Cc1cc(-c2ccccc2)cc(C(=O)NNS(=O)(=O)C2CCN(C)C2)c1F` (stereo not shown) [Compound I-31], the IC50 fell in the range of 10 to 50 µM against KAT6A and 50 to 100 µM on KAT5.
As for `Cc1cc(-c2ccccc2)cc(C(=O)NNS(=O)(=O)C2CCN(C(=O)c3ccccc3)C2)c1F` (stereo not shown) [Compound I-32], the results for the IC50 against KAT6A and against KAT5 were ≤ 10 µM and 10 to 50 µM, respectively.
`Cc1cc(-c2ccccc2)cc(C(=O)NNS(=O)(=O)C2CCN(Cc3ccccc3)C2)c1F` (stereo not shown) [Compound I-33]: the IC50 against KAT6A and at KAT5 was 10 to 50 µM each time.
As for `Cc1cc(-c2ccccc2)cc(C(=O)NNS(=O)(=O)C2CN(C(=O)c3ccccc3)C2)c1F` [Compound I-34], the IC50 against KAT6A and at KAT5 was 10 to 50 µM throughout.
Regarding `Cc1cc(-c2ccccc2)cc(C(=O)NNS(=O)(=O)C2CCN(CCc3ccccc3)C2)c1F` (stereo not shown) [Compound I-36], the IC50 at KAT6A and against KAT5 was 10 to 50 µM in each case.
As to `Cc1cc(-c2ccccc2)cc(C(=O)NNS(=O)(=O)C2CN(Cc3ccccc3Cl)C2)c1F` [Compound I-37], the IC50 against KAT6A and against KAT5 was 10 to 50 µM in each case.
With `Cc1cccc(C(=O)NNS(=O)(=O)Cc2ccccc2)c1F` [Compound I-39], the IC50 is > 100 µM at KAT6A and 10 to 50 µM against KAT5.
Taken in the same sequence, the figures for `CC(=O)N1CC(S(=O)(=O)NNC(=O)c2cc(-c3ccccc3)cc(C)c2F)C1` [Compound I-40] were 10 to 50 µM and 50 to 100 µM.
Taken in the same sequence, the figures for `Cc1cc(-c2ccccc2)cc(C(=O)NNS(=O)(=O)C2CN(CCO)C2)c1F` [Compound I-42] were 10 to 50 µM and 50 to 100 µM.
Consider `COCCN1CC(S(=O)(=O)NNC(=O)c2cc(-c3ccccc3)cc(C)c2F)C1` [Compound I-43], for which the IC50 lay in the range of 10 to 50 µM against KAT6A and 50 to 100 µM against KAT5.
For the compound `O=S(=O)(NNc1n[nH]c2ccccc12)c1ccccc1` [Compound I-44], the IC50 on KAT6A and against KAT5 was > 100 µM in each case.
As to `O=S(=O)(NNc1n[nH]c2cccc(F)c12)c1ccccc1` [Compound I-45], the IC50 against KAT6A and against KAT5 was > 100 µM in each case.
Turning to `O=S(=O)(NNc1n[nH]c2ccc(-c3ccccc3)cc12)c1ccccc1` [Compound I-46], the concentration for half-maximal inhibition (IC50) at KAT6A and on KAT5 was > 100 µM throughout.
As for `Cn1nc(NNS(=O)(=O)c2ccccc2)c2cc(-c3ccccc3)ccc21` [Compound I-47], the half-inhibitory concentration (IC50) against KAT6A and at KAT5 was > 100 µM each time.
As for `O=S(=O)(NNc1n[nH]c2c(F)cccc12)c1ccccc1` [Compound I-48], the IC50 against KAT6A and against KAT5 was > 100 µM each time.
Turning to `Cn1nc(NNS(=O)(=O)c2ccccc2)c2cccc(-c3ccccc3)c21` [Compound I-49], the IC50 against KAT6A and against KAT5 was > 100 µM throughout.
Take `O=S(=O)(NNc1n[nH]c2c(-c3ccccc3)cccc12)c1ccccc1` [Compound I-50]: the values for the IC50 on KAT6A and against KAT5 were > 100 µM and 50 to 100 µM, respectively.
With `O=C(NNS(=O)(=O)c1ccccc1)c1cc(-c2ccccc2)cc2[nH]cnc12` [Compound I-53], the IC50 against KAT6A and against KAT5 was 10 to 50 µM throughout.
Turning to `Cc1cc(-c2ccccc2)cc(C(=O)NNS(=O)(=O)C2COC2)c1F` [Compound I-55], the IC50 at KAT6A and on KAT5 was 10 to 50 µM throughout.
With `Cc1cc(-c2ccccc2)cc(C(=O)NNS(=O)(=O)C2CN(Cc3ccccc3)C2)c1F` [Compound I-61], the IC50 was 10 to 50 µM against KAT6A and > 100 µM on KAT5.
On to `Cc1cc(-c2ccccc2)cc(C(=O)NNS(=O)(=O)C2CN(CCc3ccccc3)C2)c1F` [Compound I-62], for which the IC50 on KAT6A was 10 to 50 µM; against KAT5, > 100 µM.
Take `Cc1cc(-c2ccccc2)cc(C(=O)NNS(=O)(=O)C2CN(Cc3ccc(Cl)cc3)C2)c1F` [Compound I-63]: the 50% inhibitory concentration (IC50) on KAT6A and on KAT5 was > 100 µM in each case.
With `O=S(=O)(Nc1ncc(-c2ccccc2F)[nH]1)c1ccccc1` [Compound I-65], the IC50 against KAT6A and against KAT5 was > 100 µM in each case.
With `O=S(=O)(Nc1ncc(-c2cc(-c3ccccc3)ccc2F)[nH]1)c1ccccc1` [Compound I-67], the IC50 on KAT6A and against KAT5 was > 100 µM throughout.
Regarding `Cc1cc(-c2ccccc2)cc(C(=O)N2CCC(S(=O)(=O)c3ccccc3)C2)c1F` (stereo not shown) [Compound I-73], the 50% inhibitory concentration (IC50) at KAT6A and on KAT5 was > 100 µM throughout.
With `Cc1cc(-c2ccccc2)cc(C(=O)NCCS(=O)(=O)Nc2ccccc2)c1F` [Compound I-75], the results for the half-maximal inhibitory concentration (IC50) against KAT6A and against KAT5 were 10 to 50 µM and 50 to 100 µM, respectively.
As to `COc1ccccc1CS(=O)(=O)NNC(=O)c1cc(-c2ccccc2)cc(C)c1F` [Compound I-79], the IC50 against KAT6A and against KAT5 was ≤ 10 µM in each case.
With `COc1cccc(CS(=O)(=O)NNC(=O)c2cc(-c3ccccc3)cc(C)c2F)c1` [Compound I-80], the half-maximal inhibitory concentration (IC50) on KAT6A and against KAT5 was ≤ 10 µM in each case.
Regarding `COc1ccc(CS(=O)(=O)NNC(=O)c2cc(-c3ccccc3)cc(C)c2F)cc1` [Compound I-81], the half-maximal inhibitory concentration (IC50) against KAT6A was in the range of 10 to 50 µM; against KAT5 it was 50 to 100 µM.
In the case of `Cc1cc(-c2ccccc2)cc(C(=O)NNS(=O)(=O)Cc2ccccc2F)c1F` [Compound I-82], the IC50 against KAT6A and at KAT5 was ≤ 10 µM in each case.
`Cc1cc(-c2ccccc2)cc(C(=O)NNS(=O)(=O)Cc2cccc(F)c2)c1F` [Compound I-83]: the IC50 against KAT6A and on KAT5 was ≤ 10 µM in each case.
Consider `Cc1cc(-c2ccccc2)cc(C(=O)NNS(=O)(=O)Cc2ccc(F)cc2)c1F` [Compound I-84], for which the IC50 on KAT6A and at KAT5 was ≤ 10 µM in each case.
With `Cc1cc(-c2ccccc2)cc(C(=O)NNS(=O)(=O)C2CCN(C(=O)OC(C)(C)C)CC2)c1F` [Compound I-88], the IC50 against KAT6A and against KAT5 was ≤ 10 µM throughout.
On to `Cc1cc(-c2ccccc2)cc(C(=O)NNS(=O)(=O)C2CCNCC2)c1F` [Compound I-89], for which the IC50 at KAT6A and against KAT5 was > 100 µM each time.
Turning to `Cc1cc(-c2ccccc2)cc(C(=O)NNS(=O)(=O)C2CCN(C)CC2)c1F` [Compound I-90], the 50% inhibitory concentration (IC50) at KAT6A and on KAT5 was 10 to 50 µM throughout.
Consider `CCN1CCC(S(=O)(=O)NNC(=O)c2cc(-c3ccccc3)cc(C)c2F)CC1` [Compound I-91], for which the IC50 at KAT6A was in the range of 50 to 100 µM; on KAT5, 10 to 50 µM.
Turning to `Cc1cc(-c2ccccc2)cc(C(=O)NNS(=O)(=O)C2CCN(C(C)C)CC2)c1F` [Compound I-92], the IC50 against KAT6A and on KAT5 was > 100 µM each time.
Turning to `COCCN1CCC(S(=O)(=O)NNC(=O)c2cc(-c3ccccc3)cc(C)c2F)CC1` [Compound I-93], the IC50 at KAT6A and against KAT5 was 10 to 50 µM each time.
Take `CC(=O)N1CCC(S(=O)(=O)NNC(=O)c2cc(-c3ccccc3)cc(C)c2F)CC1` [Compound I-94]: the concentration for half-maximal inhibition (IC50) against KAT6A and on KAT5 was 10 to 50 µM throughout.
With `Cc1cc(-c2ccccc2)cc(C(=O)NNS(=O)(=O)C2CCCNC2)c1F` (stereo not shown) [Compound I-97], the IC50 against KAT6A was 50 to 100 µM; against KAT5, > 100 µM.
For the compound `Cc1cc(-c2ccccc2)cc(C(=O)NNS(=O)(=O)C2CCCN(C)C2)c1F` (stereo not shown) [Compound I-98], the IC50 at KAT6A was 10 to 50 µM; at KAT5, > 100 µM.
Regarding `CCN1CCCC(S(=O)(=O)NNC(=O)c2cc(-c3ccccc3)cc(C)c2F)C1` (stereo not shown) [Compound I-99], the IC50 against KAT6A was 10 to 50 µM; on KAT5, > 100 µM.
